Consider 2 compounds from patent US20080255117A1, “SULFONYLTRYPTOPHANOLS” (priority 2007, published 2008).

This assay addresses T1, human FSH receptor (Homo sapiens, UniProt P23945).
T1 construct: expressed in transfected cells; host or cells: CHO cells (hFSHR clone 16)
T1 sequence (P23945 18-695): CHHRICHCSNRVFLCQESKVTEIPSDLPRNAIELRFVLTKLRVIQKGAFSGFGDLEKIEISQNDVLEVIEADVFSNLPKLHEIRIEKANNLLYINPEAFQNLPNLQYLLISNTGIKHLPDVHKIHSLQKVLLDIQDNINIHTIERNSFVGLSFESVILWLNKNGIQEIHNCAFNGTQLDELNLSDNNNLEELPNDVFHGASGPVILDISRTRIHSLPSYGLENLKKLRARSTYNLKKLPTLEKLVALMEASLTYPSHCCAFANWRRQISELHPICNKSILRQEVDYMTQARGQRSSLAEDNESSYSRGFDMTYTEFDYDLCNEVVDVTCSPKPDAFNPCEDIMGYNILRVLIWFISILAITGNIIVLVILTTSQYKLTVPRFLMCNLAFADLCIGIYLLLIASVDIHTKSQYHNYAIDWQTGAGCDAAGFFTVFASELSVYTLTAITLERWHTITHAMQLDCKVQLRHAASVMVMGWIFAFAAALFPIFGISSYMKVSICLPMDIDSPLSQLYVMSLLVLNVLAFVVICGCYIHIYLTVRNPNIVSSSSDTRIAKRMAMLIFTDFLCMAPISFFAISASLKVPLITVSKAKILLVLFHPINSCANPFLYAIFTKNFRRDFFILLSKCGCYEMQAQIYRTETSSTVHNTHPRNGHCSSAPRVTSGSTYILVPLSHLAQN
The experiment in a line: HTRF assay for measuring cAMP in cells (FSH antagonism). Format: cell-based. The settings on record: FSH antagonistic effect in the HTRF assay; hFSHR clone 16 cells (CHO cells stably transfected with the human FSH receptor); in the presence of 1e-9 mol/l hFSH. The procedure:
HTRF Assay for Measuring cAMP in Cells
The method is based on a competitive immunoassay between native cAMP, which has been produced by the cells, and cAMP which is labelled with cAMPD2 conjugate. The tracer binding was visualized by a monoclonal antibody, anti-cAMP labelled with cryptate [HTRF=homogeneous time-resolved fluorescence].
The specific signal is inversely proportional to the cAMP concentration of the samples employed.
The 665 nm/620 nm fluorescence ratio was evaluated.
The following material was used: 96-well plates for the tissue culture, 96-well plates with black edge and black base (e.g. Fluotrac 600 from Greiner), 96-well plates for the substance dilutions of polypropylene and cAMP Femtomolar (4000 wells Kit, CIS Bio International # 62AM5PEJ).
The following reagents were used: BSA (bovine serum albumin) Fraction V protease-free, IBMX (3-isobutyl-1-methylxanthine), hFSH (human follicle stimulating hormone), Triton X-100 analytical grade, potassium fluoride analytical grade, G 418 (Geneticin) and Accutase.
Buffer 1 (washing and testing buffer) contained PBS, 1 mM CaCl2, 1 mM MgCl2, 0.2% glucose; 0.1% BSA, 1 mM IBMX. […]
The values of the well ratio were averaged and then entered directly in SigmaPlot versus the concentrations. The maximum and minimum values were determined for each plate, and half the difference is to be regarded as IC50.
(In TR-FRET formats the signal depends on donor and acceptor labels being close together.)

Take `O=S(=O)(N[C@@H](CO)Cc1c[nH]c2ccccc12)c1cc(-c2ccc3ncccc3c2)cc2c1OCC2` [Example 39, 5-Quinolin-6-yl-2,3-dihydro-benzofuran-7-sulfonic acid [(R)-2-hydroxy-1-(1H-indol-3-ylmethyl)-ethyl]-amide]: the IC50 came out at 5 µM.

`N#CCc1ccc(-c2cc3c(c(S(=O)(=O)N[C@@H](CO)Cc4c[nH]c5ccccc45)c2)OCC3)cc1` [Example 52, 5-(4-Cyanomethyl-phenyl)-2,3-dihydro-benzofuran-7-sulfonic acid [(R)-2-hydroxy-1-(1H-indol-3-ylmethyl)-ethyl]-amide]: the IC50 was determined as 10 µM.

A word on the IC50: it is the concentration that inhibits the measured activity by half.
